3 compounds from PMC11036650, “Different Modes of Mechanism of Gamma-Mangostin and Alpha-Mangostin to Inhibit Cell Migration of Triple-Negative Breast Cancer Cells Concerning CXCR4 Downregulation and ROS Generation” (Iranian Journal of Pharmaceutical Research : IJPR, 2023) can be followed below.

Common to all, as to format: cell-based, human
In data set [1] the test system is MDA-MB-231 cells. The data set is described as follows: Intracellular ROS level measurement (DCFDA, flow cytometry). To be noted: for ROS accumulation: 10 µM. The protocol: The MDA-MB-231 cells were collected in a buffer with 10% FBS in phosphate-buffered saline (PBS) and transferred in a sterile light-blocking microtube before being stained with 20 µM of 2’,7’-dichlorofluorescein diacetate (DCFDA) (Sigma #D6883, USA) and incubated for 30 minutes. Later, γ-mangostin and α-mangostin were added to the cell suspensions and incubated in a 37 °C incubator (with 5% CO2) before analyzing by a flow cytometer (Calibur) at indicated times (4, 8, 18, and 24 hours). 2’,7’-dichlorofluorescein diacetate reacted with the hydroxyl radicals (·OH) and transformed into fluorescent 2,7-dichlorofluorescein (DCF). The fluorescence intensity of DCF based on 5,000 cells per gate was calculated using the flow cytometer ([29], [30]). In a separate experiment, the cells already stained with DCFDA were treated with 5 mM N-acetyl-L-cysteine (NAC) (Wako #017-05131, Japan) and incubated for an hour before the treatment with γ-mangostin and α-mangostin for the next 24 hours, and the ROS level was subsequently measured. The assay was carried out in triplicate.

The subject of data set [2] is MDA-MB-231 cells. Put plainly: Cell viability assay (CCK-8). To be noted: MDA-MB-231 cells, 24 hours, CCK-8 assay, triplicate ± SD. How it is done: (§1) The MDA-MB-231 breast cancer cells were cultured in an L-15 medium, enriched with 15% fetal bovine serum (FBS) (Gibco, USA) and 1% penicillin-streptomycin (Gibco, USA), and incubated in CO2-free 37°C incubator.
(§2) The compounds γ-mangostin (#M6824) and α-mangostin (#M3824) were purchased from Sigma-Aldrich (USA). A suspension of cells (20,000 cells/well in 100 μL) was cultured in a 96-well plate. After an initial 24-hour incubation, γ-mangostin or α-mangostin of varying concentrations (1 - 100 μM) was added to the plate, followed by another 24-hour incubation. A solution of Cell Counting Kit-8 (CCK-8) (Dojindo #347-07621, Japan) was added to each well, and the plate was incubated for 2 hours. The absorbance was subsequently read at 450 nm using a microplate reader ([26]). The assay was carried out in triplicate.

The nature of data set [3]: Cell viability assay (CCK-8). To be noted: human. How it is done: as §1, §2
In another data set the test system is Farp. Put plainly: qRT-PCR gene expression, Farp. To be noted: MDA-MB-231 cells, RT-qPCR. The protocol: (§3) Total ribonucleic acid (RNA) upon treatment with γ-mangostin and α-mangostin was collected from cells using Sepasol (Nacalai Tesque, Japan). The reverse transcription of complementary deoxyribonucleic acid (cDNA) was performed using ReverTra Ace qPCR RT Kit (Toyobo, Japan), which included DNAse I to remove genomic DNA. Quantitative real-time reverse-transcription polymerase chain reaction (qRT-PCR) was performed using the Thunderbird SYBR qPCR Mix (Toyobo, Japan) on a Real-Time PCR System Light Cycler 96 (Roche, USA). Rac, Farp, CXCR4 ([28]), and latrophilin-2 (LPHN2) primers were used, and GAPDH was detected as the internal control.

Another data set concerns LPHN2. Put plainly: qRT-PCR gene expression, LPHN2. To be noted: MDA-MB-231 cells, RT-qPCR. The protocol: as §3
Data set [4] concerns MDA-MB-231 cells. The data set is described as follows: Migration assay (wound healing). To be noted: 10 μM, 24 and 42 hours, mitomycin C pretreatment, P < 0.05. How it is done:
A culture-insert 2 well (cat #ib81176) was placed in the well. Then, 5 × 10^4 cells were seeded on each side of the insert. After 24 hours, the medium was discarded and replaced with the fresh medium containing 0.5% FBS, and the cells were cultured for another 18 hours. The next day, the medium was replaced with 10 µg/mL mitomycin C (Wako #139-18711, Japan) and cultured for 2 hours before treatment with 10 μM γ-mangostin and 10 μM α-mangostin. Right after the treatment, the cells were observed under the microscope at 0 hour. At the indicated times (24 and 42 hours), the cell-free area from three parts (i.e., upper, center, and lower scratch) was measured by analyzing the gap closure rate using ImageJ software ([27]).

The next data set has as its system CXCR4. Put plainly: qRT-PCR gene expression, CXCR4. To be noted: MDA-MB-231 cells, RT-qPCR. The protocol:
as §3

[5] abbreviates: longer incubation up to 24 hours, P < 0.0001.

Read-outs that look alike come from different tables or passages of the source.

As to `CC(=O)N[C@@H](CS)C(=O)O` [NAC, N-acetyl-L-cysteine, reference compound], the “amount of ROS induced by γ-mangostin and α-mangostin” value with MDA-MB-231 cells [1] (5 mM NAC for 1 hour before 10 µM mangostin for 24 hours, P < 0.0001) is reported as “reduced”.

`COc1c(O)cc2oc3cc(O)c(CC=C(C)C)c(O)c3c(=O)c2c1CC=C(C)C` [α-mangostin] returned an IC50 in the data set on MDA-MB-231 cells [2] (Homo sapiens) of 20 µM. For the same compound, the viability at 24 h, 10 µM in data set [3] (MDA-MB-231 breast cancer cells, MDA-MB-231 cells, 10 µM concentration, read-out: cell viability) was 80%. Further, the viability at 24 h in data set [3] (MDA-MB-231 breast cancer cells, MDA-MB-231 cells, concentration below 10 µM, 24 hours) is 80 to 90%. Also, in the data set with Farp, the “expression of Farp (mRNA, normalized with GAPDH)” value was “did not alter”. Besides, in the data set with LPHN2, the “expression of LPHN2 (mRNA, normalized with GAPDH)” value is on record as “did not alter”. The ROS accumulation result is listed as “decreased” with MDA-MB-231 cells [1] (after 4 hours) and “started to rise” in the data set with MDA-MB-231 cells [1] (setting [5]). The “MDA-MB-231 cell migration (gap closure)” value with MDA-MB-231 cells [4] is “a similar outcome was observed”. The “expression of CXCR4 (mRNA, normalized with GAPDH)” value with CXCR4 is recorded as “did not alter”.

As to `CC(C)=CCc1c(O)cc2oc3cc(O)c(O)c(CC=C(C)C)c3c(=O)c2c1O` [γ-mangostin], the IC50 in the data set with MDA-MB-231 cells [2] (Homo sapiens, MDA-MB-231, 24 h) was 25 µM; in the data set on MDA-MB-231 cells [2], 18 ± 5 µM. This compound gave a viability at 24 h, 10 µM in data set [3] of 80%. The “expression of Farp (mRNA, normalized with GAPDH)” value in the data set on Farp is recorded as “downregulated”. Besides, the “expression of LPHN2 (mRNA, normalized with GAPDH)” value with LPHN2 is reported as “downregulated”. The ROS accumulation entry in the data set on MDA-MB-231 cells [1] (after 4 hours) is “decreased”; with MDA-MB-231 cells [1] (setting [5]), “started to rise”. Besides, the “MDA-MB-231 cell migration (gap closure)” value in the data set on MDA-MB-231 cells [4] is listed as “effectively inhibited MDA-MB-231 cell migration”. Further, the “expression of CXCR4 (mRNA, normalized with GAPDH)” value in the data set on CXCR4 is on record as “downregulated”.
